pIC50: −log10 of the molar value.

The test relates to human cervical tumor cell line HeLa (ATCC CCL-2). Description: SAC-Formation - Nocodazole-Induced Assay. Format: cell-based. The settings on record: Homo sapiens, HeLa, 24 h, HeLa cells, nocodazole 0.1 μg/ml together with test compound, decrease of mitotic cells (phospho-histone H3 Ser10). The essentials:
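Loss of phospho-histone H3 Ser10-positive cells, counted against Hoechst-stained nuclei by high-content imaging, marked mitotic breakthrough. Compounds (0.005–20 μM, 0.5% DMSO) were co-dosed with 0.1 μg/ml nocodazole onto HeLa cells for 24 h at 37 °C. Curves were fitted with a four-parameter Hill equation.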
`CCCN1C[C@H](F)[C@H](Oc2ccc(NC(=O)c3c(C)nsc3Nc3cnc(C(F)(F)F)cn3)cn2)C1` [Example 408, N-(6-{[(3R,4S)-4-Fluoro-1-propylpyrrolidin-3-yl]oxy}pyridin-3-yl)-3-methyl-5-{[5-(trifluoromethyl)pyrazin-2-yl]amino}-1,2-thiazole-4-carboxamide]: the negative logarithm of the IC50 (pIC50) – broadly, the negative decadic logarithm of the IC50, by convention in mol/L – is 8.51.

Take `Cc1nsc(Nc2cnccn2)c1C(=O)Nc1ccc(OC2CCCN(C(=O)OC(C)(C)C)C2)nc1` (stereo not shown) [Example 41, tert-Butyl 3-{[5-({[3-methyl-5-(pyrazin-2-ylamino)-1,2-thiazol-4-yl]carbonyl}amino)-pyridin-2-yl]oxy}piperidine-1-carboxylate]: the pIC50 is 6.62. The same measure for `CCN1CC[C@H](Oc2ccc(NC(=O)c3c(C)nsc3Nc3cnc(C(F)(F)F)cn3)cn2)[C@H](F)C1` [Example 424, N-(6-{[(3R,4S)-1-Ethyl-3-fluoropiperidin-4-yl]oxy}pyridin-3-yl)-3-methyl-5-{[5-(trifluoromethyl)pyrazin-2-yl]amino}-1,2-thiazole-4-carboxamide]: 7.13; for `Cc1nsc(Nc2cnc3ccccc3n2)c1C(=O)Nc1cccc(C(=O)NCC(=O)OC(C)(C)C)c1` [Example 54, tert-Butyl N-[3-({[3-methyl-5-(quinoxalin-2-ylamino)-1,2-thiazol-4-yl]carbonyl}amino)-benzoyl]glycinate]: 6.00.

Values taken from patent US20170334899A1, “AMINO-SUBSTITUTED ISOTHIAZOLES” (Bayer Pharma Aktiengesellschaft, priority 2014, published 2017).
